Reference: patent publication US20200048267A1, “OGA INHIBITOR COMPOUNDS” (Janssen Pharmaceutica NV, priority 2017, published 2020)
Where a name gives a salt, the structure may show the parent alone.

Legend:
[1] = target: T1, recombinant human Meningioma Expressed Antigen 5 (MGEA5), also referred to as O-GlcNAcase (OGA) (Homo sapiens, UniProt O60502); assay: OGA biochemical assay (inhibition of FM-GlcNAc hydrolysis, fluorescence); conditions: for Emax: read-out: ENZYMATIC Emax (%); for IC50: read-out: ENZYMATIC hOGA, pIC50 (converted)
T1 construct: Full length OGA enzyme was purchased at OriGene (cat # TP322411); purchased OriGene TP322411
T1 sequence (O60502 1-916): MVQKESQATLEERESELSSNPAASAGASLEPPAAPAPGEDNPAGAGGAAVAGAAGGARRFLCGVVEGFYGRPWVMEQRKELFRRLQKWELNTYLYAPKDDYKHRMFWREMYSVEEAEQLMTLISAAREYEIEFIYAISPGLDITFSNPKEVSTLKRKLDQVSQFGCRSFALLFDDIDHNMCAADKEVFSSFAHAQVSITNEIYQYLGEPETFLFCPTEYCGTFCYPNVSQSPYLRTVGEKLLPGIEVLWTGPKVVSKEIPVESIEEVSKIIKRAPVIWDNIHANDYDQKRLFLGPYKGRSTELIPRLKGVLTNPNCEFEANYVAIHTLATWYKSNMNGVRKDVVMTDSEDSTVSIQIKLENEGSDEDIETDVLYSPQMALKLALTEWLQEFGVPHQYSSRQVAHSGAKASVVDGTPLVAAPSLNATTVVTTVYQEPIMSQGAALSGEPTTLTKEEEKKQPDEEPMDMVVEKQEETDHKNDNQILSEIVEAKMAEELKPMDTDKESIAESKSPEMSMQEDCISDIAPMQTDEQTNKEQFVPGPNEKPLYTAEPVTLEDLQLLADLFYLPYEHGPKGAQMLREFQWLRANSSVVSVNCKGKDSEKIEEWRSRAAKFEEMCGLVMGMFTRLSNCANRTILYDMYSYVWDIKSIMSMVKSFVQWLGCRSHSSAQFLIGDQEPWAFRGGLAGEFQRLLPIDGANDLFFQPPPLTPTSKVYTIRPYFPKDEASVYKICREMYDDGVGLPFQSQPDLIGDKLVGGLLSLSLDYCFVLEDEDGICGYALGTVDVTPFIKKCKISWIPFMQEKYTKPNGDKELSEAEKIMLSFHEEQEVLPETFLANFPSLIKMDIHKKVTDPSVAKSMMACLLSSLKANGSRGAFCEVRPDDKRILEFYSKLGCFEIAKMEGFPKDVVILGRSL
Text: The assay is based on the inhibition of the hydrolysis of fluorescein mono-β-D-N-Acetyl-Glucosamine (FM-GlcNAc) (Mariappa et al. 2015, Biochem J 470:255) by the recombinant human Meningioma Expressed Antigen 5 (MGEA5), also referred to as O-GlcNAcase (OGA). The hydrolysis FM-GlcNAc (Marker Gene technologies, cat # M1485) results in the formation of B-D-N-glucosamineacetate and fluorescein. The fluorescence of the latter can be measured at excitation wavelength 485 nm and emission wavelength 538 nm. An increase in enzyme activity results in an increase in fluorescence signal. Full length OGA enzyme was purchased at OriGene (cat # TP322411). The enzyme was stored in 25 mM Tris.HCl, pH 7.3, 100 mM glycine, 10% glycerol at −20° C. Thiamet G and GlcNAcStatin were tested as reference compounds (Yuzwa et al. 2008 Nature Chemical Biology 4:483; Yuzwa et al. 2012 Nature Chemical Biology 8:393). The assay was performed in 200 mM Citrate/phosphate buffer supplemented with 0.005% Tween-20. 35.6 g Na2HPO4 2 H2O (Sigma, # C0759) were dissolved in 1 L water to obtain a 200 mM solution. 19.2 g citric acid (Merck, # 1.06580) was dissolved in 1 L water to obtain a 100 mM solution. pH of the sodium phosphate solution was adjusted with the citric acid solution to 7.2. The buffer to stop the reaction consists of a 500 mM Carbonate buffer, pH 11.0. 734 mg FM-GlcNAc were dissolved in 5.48 mL DMSO to obtain a 250 mM solution and was stored at −20° C. OGA was used at 2 nM concentration and FM-GlcNAc at a 100 uM final concentration. Dilutions were prepared in assay buffer.
50 nl of a compound dissolved in DMSO was dispensed on Black Proxiplate™ 384 Plus Assay plates (Perkin Elmer, #6008269) and 3 μl fl-OGA enzyme mix added subsequently. Plates were pre-incubated for 60 min at room temperature and then 2 μl FM-GlcNAc substrate mix added. […] Plates were briefly centrifuged for 1 min at 1000rpm and incubate at room temperature for 6 h. To stop the reaction 5 μl STOP buffer were added and plates centrifuge again 1 min at 1000 rpm.
Fluorescence was quantified in the Thermo Scientific Fluoroskan Ascent or the PerkinElmer EnVision with excitation wavelength 485 nm and emission wavelength 538 nm.
For analysis a best-fit curve is fitted by a minimum sum of squares method. From this an IC50 value and Hill coefficient was obtained. High control (no inhibitor) and low control (saturating concentrations of standard inhibitor) were used to define the minimum and maximum values.

[2] = target: T2, OGA (Homo sapiens, UniProt O60502); assay: OGA cellular assay (ICC detection of O-GlcNAcylated proteins in HEK293 cells inducible for P301L mutant human Tau); assay type: cell-based; conditions: 6 hours incubation; for EC50: read-out: CELLULAR hOGA, pEC50 (converted)
T2 construct: HEK293 cells inducible for P301L mutant human Tau (isoform 2N4R) were established at Janssen; endogenous in cells; host or cells: HEK293 cells inducible for P301L mutant human Tau (2N4R)
T2 sequence (O60502 1-916): T1 sequence (O60502 1-916)
Experimental: HEK293 cells inducible for P301L mutant human Tau (isoform 2N4R) were established at Janssen. Thiamet-G was used for both plate validation (high control) and as reference compound (reference EC50 assay validation). OGA inhibition is evaluated through the immunocytochemical (ICC) detection of O-GlcNAcylated proteins by the use of a monoclonal antibody (CTD110.6; Cell Signaling, #9875) detecting O-GlcNAcylated residues as previously described (Dorfmueller et al. 2010 Chemistry & biology, 17:1250). Inhibition of OGA will result in an increase of O-GlcNAcylated protein levels resulting in an increased signal in the experiment. Cell nuclei are stained with Hoechst to give a cell culture quality control and a rough estimate of immediate compounds toxicity, if any. ICC pictures are imaged with a Perkin Elmer Opera Phenix plate microscope and quantified with the provided software Perkin Elmer Harmony 4.1.
Cells were propagated in DMEM high Glucose (Sigma, #D5796) following standard procedures. 2 days before the cell assay cells are split, counted and seeded in Poly-D-Lysine (PDL) coated 96-wells (Greiner, #655946) plate at a cell density of 12,000 cells per cm^2 (4,000 cells per well) in 100 µl of Assay Medium (Low Glucose medium is used to reduce basal levels of GlcNAcylation) (Park et al. 2014 The Journal of biological chemistry 289:13519). At the day of compound test medium from assay plates was removed and replenished with 90 μl of fresh Assay Medium. 10 μl of compounds at a 10 fold final concentration were added to the wells. Plates were centrifuged shortly before incubation in the cell incubator for 6 hours. DMSO concentration was set to 0.2%. Medium is discarded by applying vacuum. For staining of cells medium was removed and cells washed once with 100 μl D-PBS (Sigma, #D8537). From next step onwards unless other stated assay volume was always 50 μl and incubation was performed without agitation and at room temperature. Cells were fixed in 50 μl of a 4% paraformaldehyde (PFA, Alpha aesar, # 043368) PBS solution for 15 minutes at room temperature. […] Before analysis samples were washed 2 times manually for 5 minutes in ICC base buffer.
Imaging is performed using Perkin Elmer Phenix Opera using a water 20× objective and recording 9 fields per well. Intensity readout at 488 nm is used as a measure of O-GlcNAcylation level of total proteins in wells. To assess potential toxicity of compounds nuclei were counted using the Hoechst staining. IC50-values are calculated using parametric non-linear regression model fitting. As a maximum inhibition Thiamet G at a 200 uM concentration is present on each plate. In addition, a concentration response of Thiamet G is calculated on each plate.

Row | Structure (SMILES) | Emax [1] [%] | IC50 [1] [µM] | melting point [°C] | ENZYMATIC hOGA; pIC50 [1] | Emax [2] [%] | EC50 [2] [µM]
1 | CC(=O)Nc1ncc(CN2CCC3(C2)CN(c2cc(C)nc(C)c2)C3)s1 [Product 23] | 100 | 0.302 | 212.2 | – | – | –
2 | Cc1cc(N2CCC3(CCN(C(C)c4cc5ccccc5n4C)C3)C2)nc(C)n1.Cl (centres unmarked) [Product 27] | 79.4 | – | 166.4 | 5.58 | – | –
3 | Cc1cc(N2CCC3(CCN(C(C)c4ccc5sc(C)nc5c4)C3)C2)nc(C)n1 (centres unmarked) [Product 31] | 102 | 0.0339 | 230 | – | 23.7 | > 1
4 | Cc1cc(N2CCC3(CCN(C(C)c4ccc5scnc5c4)C3)C2)nc(C)n1.Cl (centres unmarked) [Product 24] | 99.3 | 0.049 | 218.2 | – | 38 | > 1
5 | Cc1cc(N2CCC3(CCN(C(C)c4ccc5nccnc5c4)C3)C2)nc(C)n1.Cl (centres unmarked) [Product 20] | 97.6 | 0.117 | 173.1 | – | 14.9 | > 1000
6 | Cc1cc(N2CCC3(CCN(Cc4ccc5sc(C)nc5c4)C3)C2)nc(C)n1 (centres unmarked) (as salt: HCl) [Product 32] | – | – | 214.8 | – | – | –
7 | CC(=O)Nc1ncc(CN2CC3(CCN(c4cc(C)nc(C)c4)C3)C2)s1 [Product 25] | 57.9 | 8.71 | 214.1 | – | – | –

More lines, now with the values ahead:

Row | Emax [1] [%] | IC50 [1] [µM] | melting point [°C] | ENZYMATIC hOGA; pIC50 [1] | Emax [2] [%] | EC50 [2] [µM] | Structure (SMILES)
8 | 102 | – | – | 7.44 | 85.3 | 0.148 | CC(=O)Nc1ncc(CN2CCC3(CCN(c4cc(C)ncc4C(F)(F)F)C3)C2)s1 (centres unmarked) [Product 34]
9 | 99.1 | 0.049 | – | – | 57.6 | 0.676 | CC(=O)Nc1ncc(CN2CCC3(CCN(c4cncc(C(F)(F)F)c4)C3)C2)s1 (centres unmarked) [Product 69]
10 | 103 | 0.0102 | – | – | 92.9 | 0.138 | CC(=O)Nc1ncc(CN2CCC3(CCN(c4cncc(C)c4)C3)C2)s1 (centres unmarked) [Product 68]
11 | 96.2 | 0.0692 | – | – | 6.9 | > 1 | Cc1cc(N2CCC3(CCN(Cc4ccc5sc(C)nc5c4)C3)C2)cc(C(F)(F)F)n1 (centres unmarked) [Product 33]
12 | 101 | 0.0263 | – | – | 56.8 | 0.724 | CC(=O)Nc1ncc(CN2CCC3(CCN(c4ccnc(C(F)(F)F)c4)C3)C2)s1 (centres unmarked) [Product 65]
13 | 100 | 0.00363 | – | – | 84.4 | 0.0398 | CCOc1cc(N2CCC3(CCN(Cc4cnc(NC(C)=O)s4)C3)C2)cc(C)n1 (centres unmarked) [Product 59]
14 | 102 | 0.00692 | – | – | 75.1 | 0.219 | COc1cc(N2CCC3(CCN(Cc4cnc(NC(C)=O)s4)C3)C2)ccn1 (centres unmarked) [Product 63]
